What was measured:
Assay type in all cases: functional
OVCAR-3 = test: Cytotoxicity against Homo sapiens (human) OVCAR3 cells after 48 hr by sulforhodamine B assay; details: OVCAR-3, 48 h
HT-29 = test: Cytotoxicity against Homo sapiens (human) HT-29 cells after 48 hr by sulforhodamine B assay; details: HT-29, 48 h
SK-MEL-5 = test: Cytotoxicity against Homo sapiens (human) SK-MEL-5 cells after 48 hr by sulforhodamine B assay; details: SK-MEL-5, 48 h
MCF7 [1] = test: Cytotoxicity against Homo sapiens (human) MCF7 cells after 48 hr by sulforhodamine B assay; details: MCF7, 48 h
NCI-H322M = test: Cytotoxicity against Homo sapiens (human) NCI-H322M cells after 48 hr by sulforhodamine B assay
CCRF-CEM = test: Cytotoxicity against Homo sapiens (human) CCRF-CEM cells after 48 hr by sulforhodamine B assay
BT-549 = test: Cytotoxicity against Homo sapiens (human) BT549 cells after 48 hr by sulforhodamine B assay; details: BT-549, 48 h
HOP-62 = test: Cytotoxicity against Homo sapiens (human) HOP62 cells after 48 hr by sulforhodamine B assay; details: HOP-62, 48 h
UO-31 = test: Cytotoxicity against Homo sapiens (human) UO31 cells after 48 hr by sulforhodamine B assay; details: UO-31, 48 h
SF-268 = test: Cytotoxicity against Homo sapiens (human) SF268 cells after 48 hr by sulforhodamine B assay; details: SF-268, 48 h
IGROV-1 = test: Cytotoxicity against Homo sapiens (human) IGROV1 cells after 48 hr by sulforhodamine B assay; details: IGROV-1, 48 h
SK-MEL-28 = test: Cytotoxicity against Homo sapiens (human) SK-MEL-28 cells after 48 hr by sulforhodamine B assay; details: SK-MEL-28, 48 h
NCI-H460 = test: Cytotoxicity against Homo sapiens (human) NCI-H460 cells after 48 hr by sulforhodamine B assay; details: NCI-H460, 48 h
[2] = Cytotoxicity against Homo sapiens (human) NCI-ADR-RES cells after 48 hr by sulforhodamine B assay
RXF 393 = test: Cytotoxicity against Homo sapiens (human) RXF393 cells after 48 hr by sulforhodamine B assay; details: RXF 393, 48 h
MOLT-4 = test: Cytotoxicity against Homo sapiens (human) MOLT4 cells after 48 hr by sulforhodamine B assay; details: MOLT-4, 48 h
SK-MEL-2 = test: Cytotoxicity against Homo sapiens (human) SK-MEL-2 cells after 48 hr by sulforhodamine B assay; details: SK-MEL-2, 48 h
HCC 2998 = test: Cytotoxicity against Homo sapiens (human) HCC2998 cells after 48 hr by sulforhodamine B assay; details: HCC 2998, 48 h
CAKI-1 = test: Cytotoxicity against Homo sapiens (human) Caki1 cells after 48 hr by sulforhodamine B assay; details: CAKI-1, 48 h
T47D = test: Cytotoxicity against Homo sapiens (human) T47D cells after 48 hr by sulforhodamine B assay
M14 = test: Cytotoxicity against Homo sapiens (human) M14 cells after 48 hr by sulforhodamine B assay; details: M14, 48 h
U-251 = test: Cytotoxicity against Homo sapiens (human) U251 cells after 48 hr by sulforhodamine B assay; details: U-251, 48 h
MCF7 [3] = test: Cytotoxicity against Homo sapiens (human) MCF7 cells assessed as cell growth at 10^-4 M after 48 hr by Alamar blue assay; details: MCF7, 48 h, read-out: Activity
SF-295 = test: Cytotoxicity against Homo sapiens (human) SF295 cells after 48 hr by sulforhodamine B assay; details: SF-295, 48 h
OVCAR-5 = test: Cytotoxicity against Homo sapiens (human) OVCAR5 cells after 48 hr by sulforhodamine B assay; details: OVCAR-5, 48 h
OVCAR-8 = test: Cytotoxicity against Homo sapiens (human) OVCAR8 cells after 48 hr by sulforhodamine B assay; details: OVCAR-8, 48 h
DU-145 = test: Cytotoxicity against Homo sapiens (human) DU145 cells after 48 hr by sulforhodamine B assay; details: DU-145, 48 h
NCI-H23 = test: Cytotoxicity against Homo sapiens (human) NCI-H23 cells after 48 hr by sulforhodamine B assay; details: NCI-H23, 48 h
EKVX = test: Cytotoxicity against Homo sapiens (human) EKVX cells after 48 hr by sulforhodamine B assay
LOX IMVI = test: Cytotoxicity against Homo sapiens (human) LOXIMVI cells after 48 hr by sulforhodamine B assay
PC-3 = test: Cytotoxicity against Homo sapiens (human) PC3 cells after 48 hr by sulforhodamine B assay; details: PC-3, 48 h
[4] = read-out: LC50 (the source's name)

ClCc1cccc(Cn2cnc3nc(Cl)nc(Cl)c32)c1
GI50 (OVCAR-3): 1510 nM
LC50 (OVCAR-3): 5370 nM
TGI (OVCAR-3): 2880 nM
GI50 (HT-29): 340 nM
GI50 (SK-MEL-5): 1200 nM
LC50 (SK-MEL-5): 4890 nM
TGI (SK-MEL-5): 2450 nM
GI50 (MCF7 [1]): 1510 nM
LC50 (concentration killing 50% of cells) (MCF7 [1]): > 100000 nM
TGI (MCF7 [1]): 4070 nM
GI50 (NCI-H322M): 14100 nM
TGI (NCI-H322M): 26900 nM
CC50 (NCI-H322M; [4]): 52500 nM
GI50 (CCRF-CEM): 1380 nM
TGI (CCRF-CEM): 2750 nM
CC50 (CCRF-CEM; [4]): 5490 nM
GI50 (BT-549): 480 nM
LC50 (50% lethal concentration) (BT-549): 4160 nM
TGI (BT-549): 1730 nM
GI50 (HOP-62): 2180 nM
TGI (HOP-62): 3630 nM
CC50 (HOP-62; [4]): 6020 nM
GI50 (UO-31): 17400 nM
LC50 (concentration causing 50% net cell kill) (UO-31): 72400 nM
TGI (UO-31): 35500 nM
GI50 (SF-268): 2130 nM
TGI (SF-268): 3800 nM
GI50 (IGROV-1): 17000 nM
LC50 (IGROV-1): 55000 nM
TGI (IGROV-1): 30900 nM
GI50 (SK-MEL-28): 170 nM
LC50 (concentration killing 50% of cells) (SK-MEL-28): 970 nM
TGI (SK-MEL-28): 400 nM
GI50 (NCI-H460): 1690 nM
TGI (NCI-H460): 3090 nM
CC50 (NCI-H460; [4]): 5490 nM
GI50 [2]: 1540 nM
LC50 (concentration killing 50% of cells) [2]: > 100000 nM
TGI [2]: 3090 nM
GI50 (RXF 393): 1340 nM
TGI (RXF 393): 2630 nM
CC50 (RXF 393; [4]): 5120 nM
GI50 (MOLT-4): 1040 nM
TGI (MOLT-4): 2290 nM
CC50 (MOLT-4; [4]): 5010 nM
GI50 (SK-MEL-2): 1770 nM
LC50 (concentration killing 50% of cells) (SK-MEL-2): 7760 nM
TGI (SK-MEL-2): 3710 nM
GI50 (HCC 2998): 1900 nM
TGI (HCC 2998): 3310 nM
CC50 (HCC 2998; [4]): 5750 nM
GI50 (CAKI-1): 1860 nM
TGI (CAKI-1): 3460 nM
GI50 (T47D): 220 nM
LC50 (T47D): > 100000 nM
TGI (T47D): 610 nM
GI50 (M14): 1380 nM
LC50 (M14): 5120 nM
TGI (M14): 2630 nM
GI50 (U-251): 1380 nM
LC50 (concentration killing 50% of cells) (U-251): 5120 nM
TGI (U-251): 2690 nM
growth at 100 µM (MCF7 [3]): 0%
GI50 (SF-295): 1860 nM
TGI (SF-295): 3380 nM
CC50 (SF-295; [4]): 6300 nM
GI50 (OVCAR-5): 1690 nM
TGI (OVCAR-5): 3230 nM
CC50 (OVCAR-5; [4]): 6300 nM
GI50 (OVCAR-8): 9330 nM
LC50 (concentration killing 50% of cells) (OVCAR-8): 45700 nM
TGI (OVCAR-8): 21400 nM
GI50 (DU-145): 140 nM
LC50 (DU-145): 520 nM
TGI (DU-145): 260 nM
GI50 (NCI-H23): 1540 nM
TGI (NCI-H23): 30900 nM
CC50 (NCI-H23; [4]): 5370 nM
GI50 (EKVX): 930 nM
TGI (EKVX): 2130 nM
CC50 (EKVX; [4]): 4570 nM
GI50 (LOX IMVI): 230 nM
TGI (LOX IMVI): 790 nM
GI50 (PC-3): 1540 nM
LC50 (concentration causing 50% cell kill) (PC-3): 5370 nM
TGI (PC-3): 2880 nM

Source: ChEMBL document CHEMBL3044672, “N9- and N7-(Chloromethyl Phenymethyl)Chloropurine Derivatives from , '-Dichloroxylenes: Synthesis and Anticancer Activity” (2005)
